Experimental data from paper PMC12864978, “Covalent modification of a glutamic acid inspired by HaloTag technology” (Nature Communications, 2026).

Assays:
Assay in all cases: In-lysate thermal proteome profiling (TPP)
[1] = molecular target: T1, Jurkat cell lysate proteome (Homo sapiens, UniProt O95628)
T1 sequence (O95628 1-575): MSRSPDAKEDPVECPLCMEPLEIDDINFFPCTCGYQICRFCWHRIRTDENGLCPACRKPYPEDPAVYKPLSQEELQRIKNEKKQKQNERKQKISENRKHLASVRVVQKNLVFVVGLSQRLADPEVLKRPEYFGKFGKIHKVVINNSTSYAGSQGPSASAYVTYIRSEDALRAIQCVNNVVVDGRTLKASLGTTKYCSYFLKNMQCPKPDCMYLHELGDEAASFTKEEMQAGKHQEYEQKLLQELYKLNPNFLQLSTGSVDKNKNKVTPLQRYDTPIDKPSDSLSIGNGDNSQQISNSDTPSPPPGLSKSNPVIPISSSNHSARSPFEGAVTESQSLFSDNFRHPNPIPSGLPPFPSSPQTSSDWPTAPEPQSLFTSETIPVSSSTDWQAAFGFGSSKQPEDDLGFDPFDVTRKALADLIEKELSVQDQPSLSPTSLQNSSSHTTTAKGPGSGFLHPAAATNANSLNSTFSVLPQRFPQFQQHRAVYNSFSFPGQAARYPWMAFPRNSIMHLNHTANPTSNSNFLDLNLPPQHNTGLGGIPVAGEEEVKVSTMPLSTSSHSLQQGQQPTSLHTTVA
Method: (§1) Jurkat cells were grown to a density of 1.0–2.5 × 10⁶ cells/ml. A 100 ml aliquot of the suspension was divided equally into two Falcon tubes and chilled on ice for 2 min. Cells were pelleted by centrifugation at 350×g for 3 min at room temperature. After discarding the supernatant, the combined pellet was resuspended in 25 ml of ice-cold PBS buffer. The washing step—centrifugation at 350×g for 2 min at room temperature, followed by supernatant removal—was further repeated twice. Following the final wash, the cell pellet was resuspended in 1.5 ml of PBS containing 0.4% (v/v) NP40 alternative and flash-frozen in liquid nitrogen. […] The resulting lysate was separated by ultracentrifugation at 100,000×g for 20 min at 4 °C (Beckman Coulter Optima MAX-XP, MLA-80 rotor). The supernatant was carefully collected, snap-frozen in liquid nitrogen, and stored at −80 °C for subsequent analysis.
(§2) Protein concentration was quantified using the Bradford protein assay. […] Following incubation, each aliquot was further subdivided into nine 120 µl portions in PCR tubes. […] For analysis, 75 µl of each supernatant was allocated for mass spectrometry-based thermal protein profiling (TPP), while the remaining 25 µl was used for immunoblotting to assess PDEδ levels.
(§3) For mass spectrometric analysis, sample processing was further proceeded with reduction and alkylation, followed by acetone precipitation and tryptic digestion. Each digested aliquot was then labelled with isobaric TMT reagents (Thermo Fisher Scientific, A52047) corresponding to its specific temperature condition from the thermal shift assay.
(§4) Proteins were considered as stabilised or destabilised when, in all three replicates,
(§5) tailed p-values were determined by applying paired t-test comparing AUC of melting curves
(§6) between DMSO-treated and compound-treated conditions, OR
(§7) least ± 10 % (same direction) compared to the DMSO control.

[2] = molecular target: Jurkat cell lysate proteome (Homo sapiens, UniProt P05388)
Method: as §1, §2, §3, §4, §5, §6, §7

[3] = molecular target: Jurkat cell lysate proteome (Homo sapiens, UniProt P36404)
Jurkat cell lysate proteome (Homo sapiens, UniProt P36404), sequence (P36404 whole entry): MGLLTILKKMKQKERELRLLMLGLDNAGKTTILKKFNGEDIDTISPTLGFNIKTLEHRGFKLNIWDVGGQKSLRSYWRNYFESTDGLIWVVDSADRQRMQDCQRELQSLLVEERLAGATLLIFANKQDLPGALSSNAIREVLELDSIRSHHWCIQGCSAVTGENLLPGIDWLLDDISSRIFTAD
Method: as §1, §2, §3, §4, §5, §6, §7

[4] = molecular target: Jurkat cell lysate proteome (Homo sapiens, UniProt P49773)
Jurkat cell lysate proteome (Homo sapiens, UniProt P49773), sequence (P49773 whole entry): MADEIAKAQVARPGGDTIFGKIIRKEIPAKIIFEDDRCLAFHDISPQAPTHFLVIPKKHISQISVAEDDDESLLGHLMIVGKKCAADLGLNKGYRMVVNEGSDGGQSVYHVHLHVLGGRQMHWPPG
Method: as §1, §2, §3, §4, §5, §6, §7

[5] = molecular target: Jurkat cell lysate proteome (Homo sapiens, UniProt P56134)
Jurkat cell lysate proteome (Homo sapiens, UniProt P56134), sequence (P56134 whole entry): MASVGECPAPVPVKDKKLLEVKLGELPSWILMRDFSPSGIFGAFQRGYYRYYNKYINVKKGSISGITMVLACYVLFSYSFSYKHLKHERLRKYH
Method: as §1, §2, §3, §4, §5, §6, §7

[6] = molecular target: Jurkat cell lysate proteome (Homo sapiens, UniProt P62318)
Jurkat cell lysate proteome (Homo sapiens, UniProt P62318), sequence (P62318 whole entry): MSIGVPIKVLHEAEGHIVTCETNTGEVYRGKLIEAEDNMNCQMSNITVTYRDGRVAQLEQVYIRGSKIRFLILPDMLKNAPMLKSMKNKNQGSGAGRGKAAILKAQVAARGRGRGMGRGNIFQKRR
Method: as §1, §2, §3, §4, §5, §6, §7

[7] = molecular target: Jurkat cell lysate proteome (Homo sapiens, UniProt Q14108)
Jurkat cell lysate proteome (Homo sapiens, UniProt Q14108), sequence (Q14108 whole entry): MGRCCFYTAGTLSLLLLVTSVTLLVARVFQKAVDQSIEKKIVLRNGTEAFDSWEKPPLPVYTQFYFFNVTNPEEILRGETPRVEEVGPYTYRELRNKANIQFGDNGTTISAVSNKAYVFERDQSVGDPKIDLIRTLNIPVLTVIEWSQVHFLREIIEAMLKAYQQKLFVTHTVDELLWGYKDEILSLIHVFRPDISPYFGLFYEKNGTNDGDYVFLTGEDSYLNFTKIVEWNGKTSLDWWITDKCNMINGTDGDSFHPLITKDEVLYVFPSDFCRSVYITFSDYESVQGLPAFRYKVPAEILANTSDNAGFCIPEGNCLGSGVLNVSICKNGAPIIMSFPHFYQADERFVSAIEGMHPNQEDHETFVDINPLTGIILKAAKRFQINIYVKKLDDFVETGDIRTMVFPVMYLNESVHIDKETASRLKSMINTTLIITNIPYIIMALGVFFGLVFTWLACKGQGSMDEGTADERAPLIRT
Method: as §1, §2, §3, §4, §5, §6, §7

[8] = molecular target: Jurkat cell lysate proteome (Homo sapiens, UniProt Q15382); settings: 10 µM, 15 min
Jurkat cell lysate proteome (Homo sapiens, UniProt Q15382), sequence (Q15382 whole entry): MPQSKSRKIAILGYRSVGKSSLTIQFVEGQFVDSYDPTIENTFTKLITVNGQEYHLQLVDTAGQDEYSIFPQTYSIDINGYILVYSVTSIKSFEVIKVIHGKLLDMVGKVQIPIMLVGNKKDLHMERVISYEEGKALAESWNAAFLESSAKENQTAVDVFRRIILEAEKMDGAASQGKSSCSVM
Method: as §1, §2, §3, §4, §5, §6, §7

[9] = molecular target: T2, Jurkat cell lysate proteome (Homo sapiens, UniProt Q99523)
T2 sequence (Q99523 78-831): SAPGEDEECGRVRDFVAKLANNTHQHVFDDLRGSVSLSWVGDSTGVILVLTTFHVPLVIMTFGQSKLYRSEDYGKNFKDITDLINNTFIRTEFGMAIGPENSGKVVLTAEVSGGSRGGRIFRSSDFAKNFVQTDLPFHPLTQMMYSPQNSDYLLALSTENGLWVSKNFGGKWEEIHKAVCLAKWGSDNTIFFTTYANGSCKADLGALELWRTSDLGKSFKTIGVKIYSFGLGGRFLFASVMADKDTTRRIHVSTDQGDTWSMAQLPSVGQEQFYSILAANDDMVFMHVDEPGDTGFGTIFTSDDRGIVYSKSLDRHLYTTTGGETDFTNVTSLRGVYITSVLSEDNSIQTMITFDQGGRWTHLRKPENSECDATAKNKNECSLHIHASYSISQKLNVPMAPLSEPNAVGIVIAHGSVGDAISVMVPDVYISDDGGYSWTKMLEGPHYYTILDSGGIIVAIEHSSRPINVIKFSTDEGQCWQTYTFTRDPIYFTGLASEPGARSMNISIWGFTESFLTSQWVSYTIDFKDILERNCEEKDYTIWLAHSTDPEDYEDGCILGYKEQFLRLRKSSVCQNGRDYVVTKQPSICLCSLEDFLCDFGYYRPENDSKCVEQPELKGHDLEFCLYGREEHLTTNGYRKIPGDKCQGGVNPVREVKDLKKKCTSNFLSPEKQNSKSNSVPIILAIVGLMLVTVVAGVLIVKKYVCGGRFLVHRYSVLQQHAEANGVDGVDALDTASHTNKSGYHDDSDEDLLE
Method: as §1, §2, §3, §4, §5, §6, §7

[10] = molecular target: T3, Jurkat cell lysate proteome (Homo sapiens, UniProt Q9H2H9)
T3 sequence (Q9H2H9 1-487): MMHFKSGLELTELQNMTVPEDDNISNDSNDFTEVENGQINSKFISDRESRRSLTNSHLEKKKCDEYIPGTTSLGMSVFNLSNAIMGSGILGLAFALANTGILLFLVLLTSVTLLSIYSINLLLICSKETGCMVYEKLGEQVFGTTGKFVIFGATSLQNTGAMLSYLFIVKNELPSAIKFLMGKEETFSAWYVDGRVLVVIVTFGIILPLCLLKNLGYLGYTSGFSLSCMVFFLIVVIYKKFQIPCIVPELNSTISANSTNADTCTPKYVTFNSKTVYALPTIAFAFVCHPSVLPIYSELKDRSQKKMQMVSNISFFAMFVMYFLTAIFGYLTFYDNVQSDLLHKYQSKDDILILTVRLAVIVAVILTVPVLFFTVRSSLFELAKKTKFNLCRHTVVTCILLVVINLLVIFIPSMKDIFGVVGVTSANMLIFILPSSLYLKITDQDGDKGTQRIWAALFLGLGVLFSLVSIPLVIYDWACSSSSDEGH
Method: as §1, §2, §3, §4, §5, §6, §7

[11] = molecular target: Jurkat cell lysate proteome (Homo sapiens, UniProt Q9H583)
Jurkat cell lysate proteome (Homo sapiens, UniProt Q9H583), sequence (Q9H583 whole entry): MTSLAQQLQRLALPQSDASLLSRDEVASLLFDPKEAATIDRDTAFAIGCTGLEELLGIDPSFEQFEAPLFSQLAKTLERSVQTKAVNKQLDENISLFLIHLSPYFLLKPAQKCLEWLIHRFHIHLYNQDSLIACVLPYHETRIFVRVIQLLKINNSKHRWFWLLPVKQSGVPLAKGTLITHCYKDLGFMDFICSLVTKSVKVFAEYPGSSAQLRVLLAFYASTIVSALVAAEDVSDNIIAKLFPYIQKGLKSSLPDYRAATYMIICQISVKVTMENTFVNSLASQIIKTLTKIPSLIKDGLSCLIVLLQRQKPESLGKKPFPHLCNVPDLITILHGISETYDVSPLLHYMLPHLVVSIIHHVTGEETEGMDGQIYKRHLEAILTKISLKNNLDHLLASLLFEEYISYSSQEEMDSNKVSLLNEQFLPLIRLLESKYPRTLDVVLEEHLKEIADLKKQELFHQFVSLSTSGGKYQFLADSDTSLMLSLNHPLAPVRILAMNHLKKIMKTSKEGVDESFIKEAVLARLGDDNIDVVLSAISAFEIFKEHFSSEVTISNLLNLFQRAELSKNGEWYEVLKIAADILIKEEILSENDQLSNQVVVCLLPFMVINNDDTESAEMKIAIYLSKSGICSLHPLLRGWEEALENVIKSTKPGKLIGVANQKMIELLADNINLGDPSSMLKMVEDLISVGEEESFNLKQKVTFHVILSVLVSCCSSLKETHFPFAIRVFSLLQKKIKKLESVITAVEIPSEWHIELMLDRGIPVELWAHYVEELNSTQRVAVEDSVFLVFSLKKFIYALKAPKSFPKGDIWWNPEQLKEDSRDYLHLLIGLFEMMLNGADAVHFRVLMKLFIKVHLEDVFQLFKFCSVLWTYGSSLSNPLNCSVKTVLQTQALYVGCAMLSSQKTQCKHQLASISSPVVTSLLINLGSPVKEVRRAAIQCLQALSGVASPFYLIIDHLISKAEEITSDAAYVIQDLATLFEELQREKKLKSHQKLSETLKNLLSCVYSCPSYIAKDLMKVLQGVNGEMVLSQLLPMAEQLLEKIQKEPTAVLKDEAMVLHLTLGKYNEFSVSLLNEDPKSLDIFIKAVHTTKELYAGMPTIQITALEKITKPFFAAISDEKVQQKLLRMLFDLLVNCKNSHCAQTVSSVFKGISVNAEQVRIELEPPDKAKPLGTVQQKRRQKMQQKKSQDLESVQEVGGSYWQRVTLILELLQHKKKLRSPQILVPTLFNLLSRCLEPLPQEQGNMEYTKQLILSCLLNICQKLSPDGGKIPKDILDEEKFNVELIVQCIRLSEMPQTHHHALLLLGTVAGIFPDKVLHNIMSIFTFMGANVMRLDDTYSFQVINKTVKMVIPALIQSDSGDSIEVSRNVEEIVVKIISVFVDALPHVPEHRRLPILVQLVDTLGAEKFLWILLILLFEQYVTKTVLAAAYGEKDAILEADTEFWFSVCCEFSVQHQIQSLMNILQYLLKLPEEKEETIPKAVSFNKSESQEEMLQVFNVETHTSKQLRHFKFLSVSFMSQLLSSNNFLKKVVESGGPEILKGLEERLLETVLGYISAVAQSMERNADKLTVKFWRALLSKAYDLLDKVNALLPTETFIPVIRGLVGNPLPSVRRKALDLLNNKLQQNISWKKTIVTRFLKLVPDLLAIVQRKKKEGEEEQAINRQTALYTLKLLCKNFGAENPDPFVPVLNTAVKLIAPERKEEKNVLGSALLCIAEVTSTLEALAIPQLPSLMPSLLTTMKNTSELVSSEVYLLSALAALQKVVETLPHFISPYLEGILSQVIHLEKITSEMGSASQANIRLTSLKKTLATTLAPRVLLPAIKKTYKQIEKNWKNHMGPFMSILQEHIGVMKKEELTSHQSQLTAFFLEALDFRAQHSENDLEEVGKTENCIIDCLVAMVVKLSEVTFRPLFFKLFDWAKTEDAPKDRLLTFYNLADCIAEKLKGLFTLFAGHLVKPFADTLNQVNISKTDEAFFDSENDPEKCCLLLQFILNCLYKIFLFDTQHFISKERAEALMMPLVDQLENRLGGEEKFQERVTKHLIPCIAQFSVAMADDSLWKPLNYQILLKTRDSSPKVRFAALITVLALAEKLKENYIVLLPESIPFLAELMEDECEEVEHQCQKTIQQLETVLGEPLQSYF
Method: as §1, §2, §3, §4, §5, §6, §7

[12] = molecular target: Jurkat cell lysate proteome (Homo sapiens, UniProt Q9UHA4)
Jurkat cell lysate proteome (Homo sapiens, UniProt Q9UHA4), sequence (Q9UHA4 whole entry): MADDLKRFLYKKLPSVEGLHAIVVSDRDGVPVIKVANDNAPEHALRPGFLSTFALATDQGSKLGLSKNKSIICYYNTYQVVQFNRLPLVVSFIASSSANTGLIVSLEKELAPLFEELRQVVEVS
Method: as §1, §2, §3, §4, §5, §6, §7

With `Cc1ccc(-n2nc3c(=O)n(CCCCS(=O)(=O)N(CCc4cccc(CCBr)c4)CC4CCNCC4)nc(C)c3c2C)cc1` [6a] the “ΔAUC CNOT4” value ([1]; 10 µM, 15 min) was -1.7, the “ΔI67°C CNOT4” value ([1]; 10 µM, 15 min) was 0 ± 3% and the ΔTm at 10 µM ([1]; read-out: ΔTm CNOT4, 10 µM, 15 min) was -2.7 ± 1 °C. The “ΔAUC RPLP0” value ([2]; 10 µM, 15 min) was -2.9, the “ΔI67°C RPLP0” value ([2]; 10 µM, 15 min) was -4 ± 5% and the ΔTm at 10 µM ([2]; read-out: ΔTm RPLP0, 10 µM, 15 min) was -5.2 ± 2.7 °C. The “ΔAUC Arl2” value ([3]; 10 µM, 15 min) was 0.97, the ΔTm at 10 µM ([3]; read-out: ΔTm Arl2, 10 µM, 15 min) was -0.92 °C and the “ΔAUC HINT1” value ([4]; 10 µM, 15 min) was 3.6. For the same compound, the “ΔI67°C HINT1” value ([4]; 10 µM, 15 min) was 3 ± 6%, the ΔTm at 10 µM ([4]; read-out: ΔTm HINT1, 10 µM, 15 min) was 4 ± 1.4 °C and the “ΔI67°C ATP5J2” value ([5]; 10 µM, 15 min) was 1 ± 1%. For the same compound, the ΔTm at 10 µM ([5]; read-out: ΔTm ATP5J2, 10 µM, 15 min) was -2 ± 1 °C, the “ΔAUC SNRPD3” value ([6]; 10 µM, 15 min) was -2 and the “ΔI67°C SNRPD3” value ([6]; 10 µM, 15 min) was -9 ± 11%. For the same compound, the ΔTm at 10 µM ([6]; read-out: ΔTm SNRPD3, 10 µM, 15 min) was 0.8 ± 0.7 °C, the “ΔI67°C SCARB2” value ([7]; 10 µM, 15 min) was -14 ± 4% and the ΔTm at 10 µM ([7]; read-out: ΔTm SCARB2, 10 µM, 15 min) was 0.7 ± 2.1 °C. For the same compound, the “ΔAUC RHEB” value [8] was -1.5, the “ΔI67°C RHEB” value [8] was -6 ± 8% and the “ΔTm RHEB” value [8] was -0.9 ± 0.8 °C. For the same compound, the “ΔAUC RHEB” value ([8]; listed as DeltaTag) was −1.5, the “ΔTm RHEB” value ([8]; listed as DeltaTag) was −0.89 °C and the “ΔAUC SORT1” value ([9]; 10 µM, 15 min) was -3.6. For the same compound, the “ΔI67°C SORT1” value ([9]; 10 µM, 15 min) was -16 ± 7%, the ΔTm at 10 µM ([9]; read-out: ΔTm SORT1, 10 µM, 15 min) was -2.2 ± 2.4 °C and the “ΔAUC SLC38A1” value ([10]; 10 µM, 15 min) was -3.3. The “ΔI67°C SLC38A1” value ([10]; 10 µM, 15 min) was -13 ± 5%, the ΔTm at 10 µM ([10]; read-out: ΔTm SLC38A1, 10 µM, 15 min) was -3.1 ± 0.5 °C and the “ΔAUC HEATR1” value ([11]; 10 µM, 15 min) was -2.9. The “ΔI67°C HEATR1” value ([11]; 10 µM, 15 min) was -8 ± 6%, the ΔTm at 10 µM ([11]; read-out: ΔTm HEATR1, 10 µM, 15 min) was -2.8 ± 1.1 °C and the “ΔAUC LAMTOR3” value ([12]; 10 µM, 15 min) was -2.1. For the same compound, the “ΔI67°C LAMTOR3” value ([12]; 10 µM, 15 min) was -3 ± 2%, the “ΔAUC LAMTOR3” value ([12]; 10 µM, 15 min, listed as DeltaTag) was −2.1 and the ΔTm at 10 µM ([12]; read-out: ΔTm LAMTOR3, 10 µM, 15 min) was -2.6 ± 1.4 °C.
